Tested on: MMP-1 production by monocytes
Assay: MMP-1 protein in monocyte conditioned media, Western blot
Type: cell-based, human
From the text: Reagents. High molecular weight urokinase plasminogen activator (HMW-uPA), low molecular weight uPA (LMW-uPA), amino-terminal fragment-uPA (ATF-uPA) and α2-antiplasmin were obtained from American Diagnostica Inc. (Stamford, Conn.). […] LPS Escherichia coli 05:B55 was purchased from Sigma-Aldrich (St. Louis, Mo.). ERK1/2/phospho-ERK1/2 and p38/phospho-p38 antibodies were from Cell Signaling Technology (Beverly, Mass.). MMP-1 antibodies used were rabbit polyclonal antibodies against MMP-1 (provided by Dr. Henning Birkedal-Hansen, NIDCR/NIH) and a mouse anti-human MMP-1 monoclonal antibody (Chemicon International, Inc., Temecula, Calif.). Rabbit anti-COX-2 antibodies were obtained from Cayman Chemical Company (Ann Arbor, Mich.) and mouse anti-β-actin antibodies were from Chemicon International, Inc., Temecula, Calif.). Purification and culture of human monocytes. Human peripheral blood cells were obtained by leukapheresis of non-disease subjects. The monocyte fraction was purified by counter-flow centrifugal elutriation as previously described (Wahl et al., Cell Immunol. 85: 373-383, 1984; and Wahl et al., “In Current Protocols in Immunology,” eds. John Wiley & Sons, Inc. NY. Vol. 2: 7.6A.1-7.6A.10., 2005) and contained greater than 90% monocytes as determined by morphology and flow cytometry. Monocytes were cultured in serum-free Dulbecco Modified Eagle's Medium (DMEM; Cambrex, Walkersville, Md.) supplemented with 2 mM L-glutamine (Mediatech, Herndon, Va.) and 10 μg/ml gentamycin (Cambrex, Walkersville, Md.). Western blot analysis of MMP-1, MAPKs and COX-2. For MMP-1 determination, purified monocytes were cultured at a density of 5×10^6/ml of DMEM in 12 well polystyrene plates (Corning Incorporated Life Sciences, Lowell, Mass.). After 36 to 48 hours of treatment with reagents, the conditioned media were centrifuged and collected. Bovine serum albumin (BSA; 40 μg/ml) was added to the culture supernatants prior to the precipitation of the proteins with cold ethanol (final concentration, 60%) for at least 15 min at −70° C. The proteins were pelleted by microcentrifuging at 20,800×g for 12 min, washed with ethanol, and lyophilized by rotary evaporation. The lyophilized proteins were resuspended in sodium dodecyl sulfate (SDS)-Laemmli buffer [500 mM Tris-HCl (pH 6.8)/10% SDS/0.01% bromophenol-blue/20% glycerol], reduced with 5% β-mercaptoethanol, heated for 4 min at 100° C., and electrophoresed on a 10 or 12% Tris-glycine gel in SDS running buffer [25 mM Tris-HCl (pH 8.3)/192 mM glycine/[…]]. The proteins were transferred onto 0.45 μm nitrocellulose in a buffer containing 25 mM Tris-HCl (pH 8.3)/192 mM glycine/20% methanol and blocked with 50 mM Tris-HCl (pH 7.5)/150 mM NaCl (TBS) containing 5% nonfat dry milk for at least 1 hour. The blots were then incubated overnight with antibodies against MMP-1.
Western blots for MMP-1, MAPKs and COX-2 were incubated overnight with primary antibodies, washed and analyzed by the addition of Alexa Fluor 680 goat anti-rabbit or Alexa Fluor 750 goat anti-mouse antibodies (Molecular Probes® Inc., Eugene, Oreg.) and the infrared fluorescence detected with the Odyssey infrared imaging system (LI-COR, Lincoln, Nebr.). Densitometry analysis of the bands on the Western blots was determined with the LI-COR software analysis program or the ImageQuant software analysis program (Amersham Biosciences, Piscataway, N.J.).

## plasmin
LPS (25 ng/ml) stimulated monocytes, indicated concentrations, FIG. 1A / 2B
  protein levels of MMP-1: dose-dependent increase
Unstimulated (control) monocytes, no LPS
  induction of MMP-1 protein: did not induce MMP-1
